Source: patent US10648917B2, “Luminescent compositions and applications thereof” (THE PENN STATE RESEARCH FOUNDATION, priority 2015, dated 2020)

What was measured:
[1] = Time-resolved fluorescence lifetime (TCSPC); format: physicochemical
Method: Fluorescence lifetimes were determined by using the Time-Correlation Single Photon Counting (TCSPC) accessory to the FluroMax-4 (Horiba, NJ). NanoLED pulse light sources at wavelengths of 352 nm and 390 nm were used for excitation. For each decay curve, 10,000 photons were collected. Fluorescence lifetime decays were fitted with an exponential series according to equation 1 below:
[formula] where F(t) is the lifetime decay function with respect to time t, Ti is the lifetime value of the emitting species, A is the background offset, and Bi is the pre-exponential function of the emitting species. The method of least squares was used to quantify χ^2 based on the decay data and the fitting function, where χ^2 values smaller than 1.2 indicates a good fit; and values above 1.2 indicate need for multiple exponential fitting in equation 1. If the lifetime decay is dominated by one emitting species, the equation can be simplified to include only the first two terms. One exponential fitting is good for TPA based fluorophores. However, for DPR based fluorophores, only three exponential fitting gives a χ^2 smaller than 1.2. E. Computational Modeling
(§1) Absorbance Spectra were recorded on Tecan Infinite M200 Pro UV-vis spectroscopy, and fluorescence spectra were recorded on Horiba FluoroMax-4 fluorospectroscopy at concentrations below 0.1 O.D. unless otherwise indicated. Quantum Yields were measured on the Quantum φ Integrating Sphere accessory to the FluoroMax-4, while lifetime measurements were determined through the Time-Correlation Single Photon Counting (TCSPC) accessory to the FluroMax-4. TCSPC was utilized in conjunction with NanoLED pulsed diode light source with peak excitation wavelength at 352 nm and at 10,000 counts peak preset. Emission was collected at the fluorescence λmax, unless otherwise indicated. For all pH-dependence experiments, sample pH was adjusted with sulfuric acid or sodium hydroxide. For all chloride-dependent quenching experiments, magnesium chloride hexahydrate (Sigma Aldrich) was used.
Fluorescence lifetime decays were fitted with an exponential series according to equation 5 below:
[formula] Where F(t) is the lifetime decay function with respect to time t, Ti is the lifetime value of the emitting species, A is the background offset, and Bi is the pre-exponential function of the emitting species. If the lifetime decay is dominated by one emitting species, the equation can be simplified to include only the first two terms. Bi measures the relative amplitude of the specified fluorophore, where the percent contribution of the fluorophore to the lifetime decay, f, is derived from equation 6:
[formula] The method of least squares was used to quantify χ^2 based on the decay data and the fitting function, where χ^2 values under 1.2 indicates a good fit, and values above 1.2 indicate need for additional terms in equation 5. Typically, an additional exponential term was necessary to improve the χ^2 value and account for the presence of a negligible 6 ns species, deemed to stem from by-products of CFD synthesis, impurities, or CFD dimers. Since the contribution from this species was minor, often less than 5%, it was not included in lifetime analysis.

[2] = pH dependence of fluorescence / pH sensing; format: physicochemical
Method: as §1
pH Dependence of CA-Cys Fluorescence. Of all solvent and environmental factors that affect fluorescence, CA-Cys appeared to display the greatest sensitivity to changes in pH. […] From a detailed analysis of FIG. 13, four correlations were observed. Fluorescence properties of CA-Cys were invariable from high basicity to a pH of 4.84, from which the excitation λmax began to red-shift from 350 nm, emission λmax began to red-shift from 418 nm, maximum fluorescence intensity began to decrease, and quantum yield began to decrease. As acidity was increased, all four trends continued until pH 2.44, from which the excitation λmax plateaued at 365 nm, emission plateaued at 445 nm, and fluorescence intensity and quantum yield both experienced a short local plateau. Similarly, Stokes shift increased from 67 nm to 80 nm in high acidity. Lastly, absorbance λmax shifted similarly to that of the maximum excitation, while absorbance intensities remained relatively constant. […] All of these patterns were reminiscent of a pH-dependent equilibrium, thus the predominant mechanism of intensity quenching and bathochromic shifts was hypothesized to be attributed to changes in protolytic equilibria. The noticeably linear quenching of intensities past pH 1.63 is discussed with respect to lifetime analysis herein below.
There is a predictable, linear increase in intensity from pH 3 to 4.5. Furthermore, emission collected at a fixed 445 nm is shown in FIG. 15 to be an isobestic point where intensities are independent of pH (up to pH 1), which should greatly improve the functionality of CA-Cys as a pH sensor. In other words, utilizing 445 nm as a dual-wavelength reference point allows for background subtraction and normalization with respect to absorbance or concentration. […] Furthermore, I418 nm/I445 nm increases linearly in the region of pH 3 to 4.5 for accurate determination of pH within this region, plotted and fitted with an R^2 value of 0.982. To sum up, I418 nm/I445 nm values near 1.6 indicate pH above 4.5, values below 0.7 indicate highly acidic environments below pH 3, while any intermediate I418 nm/I445 nm values can determine the exact pH with good accuracy. It is important to note that CA-Cys fluorescence is in accordance with Kasha's rule, i.e. fluorescence occurs from the lowest excited state, S1→S0, thus the emission λmax is independent of the excitation wavelength, and a fluorescence excitation scan at a fixed emission of 418 nm or 445 nm would provide the maximum fluorescence intensity for that emission wavelength. Also of importance is the reliable range of the isobestic point, which is broken at high acidities (noticeably below pH 1) due to dynamic quenching effects.

| fluorescence lifetime τ1 ([1]; three exponential model) | fluorescence lifetime τ2 ([1]; three exponential model) | fluorescence lifetime τ3 ([1]; three exponential model) | pH of sharp colorimetric transition [2] | τ ([1]; Anion protolytic state) | τ ([1]; Dianion protolytic state (physiological pH)) | τ ([1]; Neutral protolytic state) | fluorescence lifetime τ ([1]; one-exponential decay, pulsed excitation at 352 nm, maximum emission wavelength) | emission transition (pH) [2] | isobestic absorption point (pH) [2] | I418 nm/I445 nm ratio ([2]; acidic range) | I418 nm/I445 nm ratio ([2]; basic range) | Stokes shift ([2]; before increase (basic)) | emission λmax plateau ([2]; from pH 2.44) | excitation λmax plateau ([2]; from pH 2.44) | quenching of emission intensity at fixed 418 nm ([2]; from pH 4.5-11 to pH 1-3) | emission λmax ([2]; high basicity to pH 4.84) | excitation λmax ([2]; high basicity to pH 4.84) | Stokes shift ([2]; in high acidity) | quenching of overall fluorescence ([2]; upon protonation of first carboxyl group) | Structure (SMILES) |
| --- | --- | --- | --- | --- | --- | --- | --- | --- | --- | --- | --- | --- | --- | --- | --- | --- | --- | --- | --- | --- |
| 0.95 ns | 4.44 ns | 10.35 ns | 9.75 | – | – | – | – | – | – | – | – | – | – | – | – | – | – | – | – | CC(C(=O)O)N1C(=O)C=C(C(=O)O)CC1=O (centres unmarked) [CA-Ala] |
| – | – | – | – | 11.19 ns | 10.06 ns | Quenched | 10.46 ns | 3.27 | 3.35 | 0.7 | 1.6 | 67 nm | 445 nm | 365 nm | roughly 2.25 fold | 418 nm | 350 nm | 80 nm | 1.37 fold | O=C(O)c1cc2n(c(=O)c1)C(C(=O)O)CS2 (centres unmarked) [CA-Cys] |
